Measured values from patent US11466020B2, “Compounds and compositions for inhibition and elimination of Zika infection and uses for same” (Cornell University, priority 2017, dated 2022).
Structures can show the parent of a compound that is named as a salt.

How the values were obtained:
[1] = molecular target: histamine-N-methyltransferase (Homo sapiens, UniProt P50135); conditions: Horton et al. 2005; cited from earlier work
ZIKV (FSS13025 strain) = experiment: qRT-PCR of total and (-) strand vRNA in hNPCs treated 48 h post-infection (FSS13025); type: cell-based, Zika virus; conditions: treatment at 48 h post-infection, 25 μM, additional 3 days
Procedure: (A and B) Inhibitory curve and IC50 of AQ were calculated based on the infection rate (A) and normalized cell viability (B) (n=6). (C and D) Immunocytochemistry analysis (C) and quantification of infection rate and total cell number (D) of hNPCs after ZIKV infection treated with 15 μM AQ or DMSO or mock infection (n=3). Cells were fixed and stained for ZIKV E and with DAPI. Scale bars, 100 μm. p values were calculated by unpaired two-tailed Student's t-test. *p<0.05, and ***p<0.001. (E) qRT-PCR analysis of total and replicating (−) strand of ZIKV (MR 766 strain) vRNA level in hNPCs from two additional donors. hNPCs from different donors were treated with 25 μM HH at 24 h post-infection. (F) The expression dynamics of ZIKV vRNA (FSS13025 strain) in hNPCs. qRT-PCR analysis to quantify the total and replicating (−) strand ZIKV vRNA levels in hNPCs at different time points post-infection. […] (G) qRT-PCR analysis of hNPCs that were treated with 25 μM HH or DMSO at 48 h post-ZIKV (FSS13025 strain) infection and maintained for additional 3 days. p values were calculated by unpaired two-tailed Student's t-test. *p<0.05, **p<0.01 and ***p<0.001, unless otherwise stated. […]
RNA Extraction and qRT-PCR. […] ZIKV vRNA levels were calculated using a standard curve generated using serial 10-fold dilutions of ZIKV vRNA.

[2] = tested on: human forebrain organoids; experiment: Forebrain organoid proliferation, apoptosis, size and structure after ZIKV infection; type: cell-based
Excerpt: Scale bars, 100 μm. […] Scale bars, 100 μm. […] Scale bars, 50 μm.
Medium was changed every other day.

ZIKV (MR766 strain) = experiment: qRT-PCR of total and (-) strand vRNA in hNPCs treated 24-48 h post-infection (MR766); type: cell-based, Zika virus
Procedure: To further evaluate the therapeutic potential of HH, qRT-PCR analysis was performed to monitor the dynamics of ZIKV vRNA expression (MR766 strain) in hNPCs. Both total and replicating (−) strand of ZIKV vRNAs could be detected at 24 h post-infection, and the vRNA level kept increasing at 36 h and 48 h post-infection (FIG. 2J). […] In addition, to determine the effect of HH on hNPCs derived from different donors, 25 μM HH or DMSO control was added to the hNPCs derived from either of two additional donors at 24 h post-infection. […] Moreover, we evaluated the dynamics of ZIKV vRNA expression (FSS13025 strain) in hNPCs.
To monitor ZIKV dynamics in hNPCs, hNPCs were infected with ZIKV (MR766 strain, MOI=0.125, FSS13025 strain MOI=0.1) for 2 h, and changed to virus-free medium. The cells were maintained in NPC medium with daily medium change. The cells were lysed at the different time points and analyzed using qRT-PCR.
RNA Extraction and qRT-PCR. Total RNA of cultured cells and organs was extracted with RNeasy plus mini kit (Qiagen). vRNA from cell culture supernatant or mouse serum was extracted with QIAampe viral RNA mini kit (Qiagen). […] ZIKV vRNA levels were calculated using a standard curve generated using serial 10-fold dilutions of ZIKV vRNA.

Sequence of histamine-N-methyltransferase (P50135 whole entry, species assumed): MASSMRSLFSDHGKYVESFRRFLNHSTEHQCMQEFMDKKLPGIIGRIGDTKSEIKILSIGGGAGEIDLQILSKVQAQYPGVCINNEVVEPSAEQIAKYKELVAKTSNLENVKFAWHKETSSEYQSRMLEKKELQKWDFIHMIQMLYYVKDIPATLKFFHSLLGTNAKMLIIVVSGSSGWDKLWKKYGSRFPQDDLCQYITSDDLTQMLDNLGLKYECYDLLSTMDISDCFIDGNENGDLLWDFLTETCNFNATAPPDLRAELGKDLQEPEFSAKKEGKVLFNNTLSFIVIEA

Structure (SMILES)	inhibition of histamine-N-methyltransferase [1]	total and replicating (-) strand ZIKV vRNAs in hNPCs (FSS13025) (ZIKV (FSS13025 strain))	ZIKV-associated proliferation (Ki67+) and apoptosis (CAS3+) defects in D20 organoids ([2]; 25 μM HH for 3 days)	ZIKV-induced structural defects in long-term organoid cultures ([2]; 25 μM HH, D20+18)	cross-sectional area of ZIKV infected organoids at D20+18 ([2]; 25 μM HH, mock 1.6, ZIKV 0.4) [mm^2]	neurotoxicity in forebrain organoids ([2]; HH compared with AQ)	total and replicating (-) ZIKV vRNA levels in hNPCs (ZIKV (MR766 strain); 25 μM added at 24 h, 36 h or 48 h post-infection, additional 3 days)	total and replicating (-) strand ZIKV vRNAs in hNPCs from two additional donors (ZIKV (MR766 strain); 25 μM added at 24 h post-infection)
CCN(CC)Cc1cc(Nc2ccnc3cc(Cl)ccc23)ccc1O [AQ, amodiaquine dihydrochloride dihydrate]	potent inhibitor							
CN1CCC2=C[C@H](O)[C@H]3OC(=O)c4cc5c(cc4[C@H]3[C@@H]21)OCO5 [HH, hippeastrine hydrobromide]		completely suppressed	completely rescued	successfully rescued	1.4	did not exhibit similar neurotoxicity as AQ	successfully suppressed	consistently suppressed
